This note sets out measurements from patent US20230257367A1, “NOVEL THYROID HORMONE BETA RECEPTOR AGONIST” (Chengdu Kanghong Pharmaceutical Co., Ltd., priority 2020, published 2023).

Each structure is given as a SMILES string. Read-outs that look alike come from different tables or passages of the source.

For one series, the target named is T1, TRβ-LBD/RXRα (Homo sapiens, UniProt P10828).
T1 construct: TRβ-LBD (Invitrogen, PV4764) with a GST tag were used; purchased Invitrogen (TRβ-LBD); Pharmaron (RXRα) PV4764
T1 sequence (P19793 whole entry partner, other chains not shown, the tested form may be a part): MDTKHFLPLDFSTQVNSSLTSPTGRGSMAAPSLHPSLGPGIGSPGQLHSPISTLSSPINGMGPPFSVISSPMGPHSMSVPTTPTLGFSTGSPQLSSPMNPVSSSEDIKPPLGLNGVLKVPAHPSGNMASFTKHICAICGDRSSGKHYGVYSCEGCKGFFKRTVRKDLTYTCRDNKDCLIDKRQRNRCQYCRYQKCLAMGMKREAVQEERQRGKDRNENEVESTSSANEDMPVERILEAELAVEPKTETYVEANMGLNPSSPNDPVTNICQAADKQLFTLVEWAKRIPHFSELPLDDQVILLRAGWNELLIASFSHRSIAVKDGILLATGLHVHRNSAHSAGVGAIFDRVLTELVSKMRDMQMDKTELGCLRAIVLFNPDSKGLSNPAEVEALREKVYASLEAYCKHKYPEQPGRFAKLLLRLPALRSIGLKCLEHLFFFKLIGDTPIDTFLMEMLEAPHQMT
Description: In vitro binding experiment (TR-FRET SRC2-2 co-activator peptide recruitment), TRβ. The conditions noted are these: 4 h incubation at room temperature. The class given is biochemical. On the technique in general: In TR-FRET formats the signal depends on donor and acceptor labels being close together.

The next series deals with T2, TRα (Homo sapiens, UniProt P10827).
T2 construct: host or cells: HEK293T
T2 sequence (P10827 1-410 isoform P10827-2): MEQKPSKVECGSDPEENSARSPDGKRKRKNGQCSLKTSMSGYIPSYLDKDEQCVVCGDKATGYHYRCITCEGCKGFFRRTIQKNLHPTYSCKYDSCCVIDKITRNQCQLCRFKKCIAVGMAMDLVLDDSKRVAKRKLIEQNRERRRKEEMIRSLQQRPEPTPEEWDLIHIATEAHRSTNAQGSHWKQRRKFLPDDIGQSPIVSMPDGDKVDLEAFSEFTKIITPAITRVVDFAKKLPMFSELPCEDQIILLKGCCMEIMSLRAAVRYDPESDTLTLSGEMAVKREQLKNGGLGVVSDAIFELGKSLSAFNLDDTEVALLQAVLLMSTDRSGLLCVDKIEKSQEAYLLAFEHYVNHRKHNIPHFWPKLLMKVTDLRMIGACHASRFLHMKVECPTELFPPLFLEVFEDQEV
T2 sequence (P19793 227-458 partner limits assumed): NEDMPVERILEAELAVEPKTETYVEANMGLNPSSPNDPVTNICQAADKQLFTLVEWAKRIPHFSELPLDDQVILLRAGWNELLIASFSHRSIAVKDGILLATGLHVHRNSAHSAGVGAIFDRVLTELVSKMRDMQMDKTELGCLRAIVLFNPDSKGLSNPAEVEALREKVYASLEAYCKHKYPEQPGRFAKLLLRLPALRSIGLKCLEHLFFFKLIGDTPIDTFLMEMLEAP
In words: In vitro TRα cell transfection experiment (GAL4 luciferase reporter, HEK293T). It is filed as cell-based. A general note: In a reporter assay the amount or activity of a reporter protein is the signal.

Another series addresses T3, TRβ (Homo sapiens, UniProt P10828).
T3 construct: host or cells: HEK293T
T3 sequence (P10828 217-461 limits assumed): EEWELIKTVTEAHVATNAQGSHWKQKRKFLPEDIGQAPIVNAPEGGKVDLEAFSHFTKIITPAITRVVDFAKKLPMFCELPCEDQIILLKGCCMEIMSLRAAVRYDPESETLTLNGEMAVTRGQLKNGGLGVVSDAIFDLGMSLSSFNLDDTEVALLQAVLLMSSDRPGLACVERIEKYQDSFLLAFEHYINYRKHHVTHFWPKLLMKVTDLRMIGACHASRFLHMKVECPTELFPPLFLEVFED
T3 sequence (P19793 227-458 partner limits assumed): T2 sequence (P19793 227-458 partner limits assumed)
Description: In vitro TRβ cell transfection experiment (GAL4 luciferase reporter, HEK293T). It is filed as cell-based.

Series [1] can be described thus: PK experiment of cynomolgus monkeys. The conditions noted are these: cynomolgus monkey, plasma; for half-life / AUC(0-t) / Cmax: single dose; for half-life: male cynomolgus monkeys, read-out: Half-life period (T1/2) (converted); for AUC(0-t): read-out: Area under the curve AUC(0-t) in the case of administration; for Cmax: read-out: Peak concentration Cmax. It is filed as in vivo. The text has this: The purpose of this experiment was to evaluate the pharmacokinetic behavior of the compound to be tested after single intravenous and intragastric administration, and to study the bioavailability after intragastric administration, providing animal experimental data for clinical studies.
Preparation of solutions for intravenous injection and intragastric administration: an appropriate amount of compound to be tested was accurately weighed, and mixed with a suitable solvent (5 vol % DMSO+10 vol % polyethylene glycol−15-hydroxystearate+85 vol % normal saline). After vortex, or ultrasound processing, a clear and transparent solution (the solution for intravenous injection administration), or a uniform suspension was obtained. The solution administrated by intravenous injection needed to be filtered through a 0.22 μm filter membrane
Experimental design: before the first dose the cynomolgus monkeys were divided into 2 groups by body weight with 3 male cynomolgus monkeys in each group, where animals in group 1 were given the compound to be tested (1 mg/kg) by single intravenous injection (IV); and animals in the 2rd group were administrated with the compound to be tested (5 mg/kg) by single intragastric administration (PO). The animals were weighed before administration, and dosages were calculated based on the weights of the animals.
Sample collection: a whole blood sample (about 0.2 mL) was collected at a specified time by venipuncture of an upper limb (or other suitable blood collection sites), and the actual blood collection time was recorded in test records. The acceptable error for one acquisition time point within 1 hour after administration is ±1 minute, and the acceptable error for other time points is ±5% of the theoretical time. All blood samples were immediately transferred to a labeled commercial centrifuge tube containing K2-EDTA. After blood sample collection, the blood sample was centrifuged at 4° C. and 3,200 g for 10 minutes, the supernatant plasma was sucked, quickly put in dry ice, and kept in a refrigerator at −70±10° C. for LC-MS/MS analysis. The collection time of both groups was 0.083 hour, 0.25 hour, 0.5 hour, 1 hour, 2 hours, 4 hours, 8 hours and 24 hours after administration.
Data processing: Area under the curve (AUC(0-t) and AUC(0-∞)), elimination half-life (T½), peak concentration (Cmax), time to reach maximum plasma concentration (Tmax), etc., were calculated by the non-compartment analysis module in Phoenix WinNonlin 7.0.

For the next series, the system named is NASH model. Description: In vivo pharmacological experiment: DIO + CCl4 induced NASH model. On the set-up: species or system C57BL/6J male mice. The conditions noted are these: oral, once per day. The method, then: In the early stages of this experiment, mice induced by DIO (diet-induced obesity) were fed with a high-fat diet, followed by intraperitoneal injection of CCl4 during high-fat diet feeding to induce the NASH model. In this model, the anti-NASH efficacy of the compound to be tested was evaluated Animal information: C57BL/6J male mice (18 weeks old) were used, comprising 32 DIO mice+8 normal mice, wherein the weight of DIO mice >38 g. [table] [table] Induction with CCl4: A 25% (volume ratio) of CCl4 solution was prepared by placing 1 part CCl4 and 3 parts olive oil in a glass bottle. The solution was mixed well and used right after it was ready Eight mice in the first group were intraperitoneally injected with normal saline solution as normal controls The mice in the 2rd to 5th groups were intraperitoneally injected with 25% CCl4 solution twice a week. 25% (volume ratio) CCl4 was administered by body weight, 0.5 ml/kg. The interval between the injection time of CCl4 and the time of administration on the day should be more than 4 hours Histopathological Analysis All liver samples were dehydrated by a dehydrating instrument (Leica HistoCore Pearl-0348) and then embedded by a paraffin embedding machine (HistoCoreArcadia). The embedded liver sample was then sliced using a Lecia RM2235 machine. NAS Score NAS scores were performed on HE (hematoxylin-eosin) stained slices as the sum of steatosis, balloon degeneration, and lobular inflammation. [table] […] Percentage of Fibrosis All slices stained with Sirius red were scanned by a Leica Aperio AT2 Brightfield scanner, and then a percentage of Sirius red positive staining area was calculated by the HALO AI system to evaluate the percentage area of the Sirius red in the total liver area scanned.

Consider `CC(C)c1nc(Oc2c(Cl)cc(-n3ncc(=O)[nH]c3=O)cc2Cl)ncc1O` [KH06], for which the EC50 (in general, the concentration giving half of the maximal effect) on TRβ-LBD/RXRα was determined as 0.007 µM; at TRα, 0.037 µM; at TRβ it was 0.009 µM. Moreover, the half-life is 9 h in series [1] (IV, 1 mg/kg) and 16.7 h in series [1] (PO, 5 mg/kg). Moreover, the bioavailability – broadly, dose-corrected exposure relative to a reference, in per cent – in series [1] (male, PO 5 mg/kg vs IV 1 mg/kg, read-out: Bioavailability (F)) was determined as 73%. Moreover, the AUC(0-t) worked out at 48.8 µg·h/mL in series [1] (male, IV, 1 mg/kg) and 178 µg·h/mL in series [1] (male, PO, 5 mg/kg). Further, the Cmax was 20700 ng/mL in series [1] (male, IV, 1 mg/kg) and 18300 ng/mL in series [1] (male, PO, 5 mg/kg). In addition, the “NAS score (sum of steatosis, ballooning degeneration and lobular inflammation)” value in the series with NASH model (1 and 3 mg/kg, compared with the model group, FIG. 2) was “significant reduction in score”. The “fibrosis evaluation (percentage of Sirius red positive area)” value with NASH model (1 and 3 mg/kg, day 0 to day 27, FIG. 1) is reported as “reducing the proportion of fibrosis”. In the series with NASH model (KH06 1 mg/kg, FIG. 1), the “fibrosis efficacy compared with MGL3196 at 3 mg/kg” value is listed as “better than that of MGL3196 at a dosage of 3 mg/kg”. In addition, the “NAS score efficacy compared with MGL3196 at 3 mg/kg” value in the series on NASH model (KH06 1 mg/kg, FIG. 2) is given as “same efficacy as MGL3196 at 3 mg/kg”.
